Results on one compound are retold here after patent US5051534A, “Novel cyclopropyl squalene derivatives and their use as inhibitors of cholesterol synthesis” (Merrell Dow Pharmaceuticals Inc., priority 1990, dated 1991).

This test addresses T1, squalene epoxidase (Rattus norvegicus, UniProt P52020).
T1 construct: Microsomes, prepared by ultracentrifugation of homogenates of rat liver; from tissue; host or cells: rat liver microsomes, incubated with the high speed supernatant fraction
Nature of the test: Inhibition of squalene epoxidase in rat liver microsomes (3H-squalene incubation, TLC or HPLC radioactivity). Type of test: biochemical. As to conditions: 37° C., 45 minutes, 60 μM 3H-squalene, 2.0 mM NADPH, 0.01 mM FAD, compounds tested at >0.0 to 100.0 μM. How it is done:
The following assay is used to test compounds for their ability to inhibit 2,3-oxidosqualene lanosterol-cyclase (squalene cyclase) or squalene epoxidase. Microsomes, prepared by ultracentrifugation of homogenates of rat liver, are incubated at 37° C. for 45 minutes in the presence of 60 μM ^3 H-squalene, 2.0 mM NADPH, 0.01 mM FAD, and the high speed supernatant fraction from the microsomal preparation. Blanks, in which NADPH has been omitted, are run simultaneously with the test compounds. Compounds are tested at concentrations of >0.0 to 100.0 μM.
Following incubation the samples are saponified, standards are added to each sample, and then the reaction products are extracted into hexane. The hexane extracts are dried and then the dried extracts are redissolved in chloroform. […] Spots containing the reaction products are scraped from the TLC plates and counted for radioactivity in a scintillation counter. An IC50 is finally calculated.
Incubation reactions are stopped by the addition of chloroform:methanol, standards are added and the reaction products and standards are extracted into chloroform. […] Chromatographic peaks containing reaction products are monitored for radioactivity with a flow-through scintillation counter connected in series with the HPLC column. An IC50 (Inhibitory Concentration) is calculated based on the radioactivity in controls and samples. […]
In general terms: Microsomes from liver hold many membrane-bound enzymes, among them those of drug oxidation.

T1 sequence (P52020 whole entry): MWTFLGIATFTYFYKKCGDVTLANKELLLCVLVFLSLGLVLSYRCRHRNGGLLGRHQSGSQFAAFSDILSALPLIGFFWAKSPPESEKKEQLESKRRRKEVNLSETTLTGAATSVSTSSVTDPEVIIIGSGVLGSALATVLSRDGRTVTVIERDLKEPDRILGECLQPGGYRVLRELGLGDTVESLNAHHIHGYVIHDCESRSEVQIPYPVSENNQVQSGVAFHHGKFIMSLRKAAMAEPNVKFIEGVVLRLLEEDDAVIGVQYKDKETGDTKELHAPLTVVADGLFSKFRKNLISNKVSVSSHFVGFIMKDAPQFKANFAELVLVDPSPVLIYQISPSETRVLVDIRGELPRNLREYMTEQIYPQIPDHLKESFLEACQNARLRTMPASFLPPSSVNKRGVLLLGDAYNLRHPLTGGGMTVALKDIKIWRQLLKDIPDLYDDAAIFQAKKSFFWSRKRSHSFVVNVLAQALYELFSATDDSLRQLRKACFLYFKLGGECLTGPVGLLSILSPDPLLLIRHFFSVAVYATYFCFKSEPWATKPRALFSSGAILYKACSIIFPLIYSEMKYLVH

Take `CC(C)=CCC/C(C)=C/CC/C(C)=C/CC/C=C(\C)CC/C=C(\C)CCCOC1CC1` [Compound 1, 4,8,13,17,21-Pentamethyl-4,8,12,16,20-docosapentaen-l-ol cyclopropyl ether]: the IC50 stood at 42 µM.

As a reminder, the IC50 is the concentration that gives 50% inhibition.
